Results from patent US6528516B1, “Methods for reducing intraocular pressure using A3 adenosine receptor antagonists” (Trustees of the University of Pennsylvania, The Center for …, priority 1998, dated 2003).
Entries after “also recorded” stand apart in the source; their conditions may differ.

Assays:
[1] = system: Bovine PE cells; assay: Intracellular Ca2+ of PE cells (fura-2); type: cell-based; details: for effect of TMX on the Ca2+ response to ATP: 10 μM TMX, 100 μM ATP, 20-sec applications
Experimental: Bovine PE cells grown on coverslips for 2-4 days were loaded with 5 μM fura-2 μAM for 30-45 min at room temperature, and then rinsed and maintained in fura-free solution before beginning data acquisition. The coverslips were mounted on a Nikon Diaphot microscope and visualized with a ×40 oil-immersion fluorescence objective. The emitted fluorescence (510 nm) from 10-12 confluent cells was sampled at 1 Hz following excitation at 340 nm and 380 nm, and the ratio determined with a Delta-Ram system and Felix software (Photon Technology International Inc., Princeton, N.J.). The ratio of light excited at 340 nm to that at 380 nm was converted into Ca^2+ concentration using the method of Grynkiewicz et al. (J. Biol. Chem. 260:3440-3450, 1985). […] Rmin was obtained by bathing cells in a Ca^2+ free isotonic solution of pH 8.0 containing 10 mM EGTA and 5 μM ionomycin. R^max was obtained by bathing the cells in isotonic solution with 1.3 mM Ca^2+ and 5 μM ionomycin. Calibration was performed separately for each experiment. Baseline levels from PE cells in the absence of fura-2 were subtracted from records to control for autofluorescence. Experiments were performed predominantly at room temperature, but several trials were performed at 37° C. using a temperature control unit from Warner Instrument Corp., (Hamden, Conn.). Cells were perfused with an isotonic solution containing (in mM) 105 NaCl, 6HEPES (acid), 4HEPES (Na^+), 1.3 CaCl2, 1 MgCl2, 4 KCl, 5 glucose and 90 mannitol, at an osmolarity of 317 mOsm, pH 7.4.

[2] = system: large-conductance Cl− channel, NIH 3T3 fibroblasts transfected with MDR1; details: NIH 3T3 fibroblasts after MDR1 transfection and growth in colchicine; read-out: EC50 for activation of large-conductance Cl− channel; cited from earlier work
[3] = system: swelling-activated Cl− channels of NPE cells; assay: Regulatory volume decrease (RVD) of NPE cells after hypotonic swelling; type: cell-based, human; details: for effect on cell volume after RVD: TMX added at t=10 min, conclusion of the RVD
[4] = system: bovine pigmented ciliary epithelial (PE) cells; assay: Cell volume (shrinkage) of PE cells in isoosmotic suspension, Coulter Counter; type: cell-based; details: for effect of tamoxifen alone on PE cell volume: absence of ATP, 30-min observation
[5] = 6 μM tamoxifen + 10 μM ATP, 5 μM gramicidin D, Cl− present, FIG. 12A
[6] = 6 μM tamoxifen + 10 μM ATP, FIG. 8C
[7] = 10 μM tamoxifen + 100 μM ATP, FIG. 15, first 6 time points
[8] = 10 μM tamoxifen + 100 μM ATP, FIG. 16A
[9] = 100 μM ATP + 10 μM TMX, FIG. 13C
[10] = 100 μM ATP + 10 μM agent, FIG. 13A
[11] = 100 μM ATP + 10 μM agent, FIG. 14A
[12] = ATP + agent (ATP+TMX; ATP+atropine), FIG. 13B
[13] = ATP + tamoxifen, absence of Cl− channel inhibitors, FIG. 12B

CC/C(=C(\c1ccccc1)c1ccc(OCCN(C)C)cc1)c1ccccc1 [tamoxifen]
effect of TMX on the Ca2+ response to ATP [1]: does not alter the magnitude of the response | effect of TMX on the Ca2+ response to ATP ([1]; listed as TMX): did not affect the size | change (Δ) in intracellular Ca2+ ([1]; 10 μM tamoxifen alone): 7 ± 6 nM | effect of tamoxifen alone on Ca2+ ([1]; tamoxifen alone): no significant effect | EC50 [2]: ~15 µM | effect on regulatory volume decrease (RVD) ([3]; TMX added at t=5 min): reduced the magnitude of the RVD | effect on regulatory volume decrease (RVD) ([3]; TMX added at t=5 min, listed as TMX): partially inhibited the steady-state response | effect on cell volume after RVD [3]: did not affect cell volume | effect on cell volume after RVD ([3]; listed as TMX): no effect on cell volume | effect on regulatory volume decrease (RVD) ([3]; TMX added at the time of hypotonic stress, 5 μM gramicidin D): completely abolished the RVD | effect on regulatory volume decrease (RVD) ([3]; TMX added at the time of hypotonic stress, 5 μM gramicidin D, listed as TMX): abolished the RVD | steady-state cell volume (v∞) ([4]; 3 μM ATP+10 μM TMX, FIG. 8B): 96.7±0.4% | time constant of the shrinkage (τ) ([4]; 3 μM ATP+10 μM TMX, FIG. 8B): 5.8 ± 2.1 min | steady-state cell volume (v∞) [4, 5]: 90.6%±1.1% | time constant of the shrinkage (τ) [4, 5]: 13.2 ± 3.2 min | steady-state cell volume (v∞) [4, 6]: 95.7±0.7% | time constant of the shrinkage (τ) [4, 6]: 6.6 ± 3.2 min | steady-state cell volume (v∞) ([4]; 10 μM ATP + 6 μM TMX, FIG. 10A): 92.8±0.8% | time constant of the shrinkage (τ) ([4]; 10 μM ATP + 6 μM TMX, FIG. 10A): 11.4 ± 0.3 min | steady-state cell volume (v∞) ([4]; 10 μM ATP+10 μM TMX, FIG. 8B): 95.7±0.3% | time constant of the shrinkage (τ) ([4]; 10 μM ATP+10 μM TMX, FIG. 8B): 1.4 ± 0.7 min | effect of agent on shrinkage in the presence of ATP ([4]; 10 μM agent, 100 μM ATP, FIG. 13A): enhanced shrinkage | steady-state cell volume (v∞) [4, 7]: 89.7±6.1% | time constant of the shrinkage (τ) [4, 7]: 22.9 ± 19.0 min | steady-state cell volume (v∞) [4, 8]: 93.9±1.0% | time constant of the shrinkage (τ) [4, 8]: 15.6 ± 5.0 min | steady-state cell volume (v∞) [4, 9]: 89.6±1.9% | time constant of the shrinkage (τ) [4, 9]: 11.3 ± 4.7 min | steady-state cell volume (v∞) [4, 10]: 94.1±0.6% | time constant of the shrinkage (τ) [4, 10]: 6.5 ± 2.3 min | steady-state cell volume (v∞) [4, 11]: 94.8±0.4% | time constant of the shrinkage (τ) [4, 11]: 2.2 ± 10.8 min | effect of tamoxifen on the ATP-triggered shrinkage ([4]; 6-10 μM tamoxifen with ATP): strongly enhanced; also recorded: enhanced the response; also recorded: enhanced the ATP-triggered shrinkage | steady-state cell volume (v∞) [4, 12]: 88.4±0.5% | time constant of the shrinkage (τ) [4, 12]: 7.2 ± 0.9 min | steady-state cell volume (v∞) [4, 13]: 94.2%±0.3% | time constant of the shrinkage (τ) [4, 13]: 4.4 ± 0.8 min | effect of tamoxifen alone on PE cell volume [4]: no consistent response | effect of tamoxifen alone on PE cell volume ([4]; listed as Tamoxifen): no consistent effect
